Columns and labels:
Test in all cases: relative viability (nuclei count vs DMSO), 5 days (fraction); higher = more cells survive
BAM7 = compound: CCOC1=CC=CC=C1N=NC2=C(NN(C2=O)C3=NC(=CS3)C4=CC=CC=C4)C [BAM7]
Method in brief: (§1)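 Viability is treated-well nuclei as a fraction of vehicle-well nuclei, reported as the median across plates. Before counting, lung cancer cell lines were kept overnight at 37 °C in 1536-well plates, pinned with five √10-spaced library-drug doses on vehicle-anchored plates, and left 5 days without medium change, then fixed, permeabilised and Hoechst-stained in one step, imaged at 4× and counted by MetaXpress. A plate passed only if control CV was below 25% and at least one doubling occurred.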

[1] = compound: CCn1c(-c2nonc2N)nc2c(C#CC(C)(C)O)ncc(OC[C@H]3CCCNC3)c21
Method in brief: as §1

[2] = compound: CCn1c(-c2nonc2N)nc2c(C#CC(C)(C)O)ncc(OC[C@H]3CCCNC3)c21 + Nc1nc2[nH]cc(CCc3ccc(C(=O)N[C@@H](CCC(=O)O)C(=O)O)cc3)c2c(=O)[nH]1 [Pemetrexed] (partner 0.2 µM)
Method in brief: (§2)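 Five library-drug doses in √10 steps were combined with a fixed anchor-drug dose, or a single drug was given alone, by pin tool to lung cancer cell lines in 1536-well plates the day after seeding. Nuclei were stained and counted after 5 days. Relative viability is the nuclei count in treated wells over that in vehicle wells, taken as the median of duplicate plates.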

BAM7 + Alpelisib = compound: CCOC1=CC=CC=C1N=NC2=C(NN(C2=O)C3=NC(=CS3)C4=CC=CC=C4)C [BAM7] + Cc1nc(NC(=O)N2CCC[C@H]2C(N)=O)sc1-c1ccnc(C(C)(C)C(F)(F)F)c1 [Alpelisib] (partner 2 µM)
Method in brief: as §2

Cell Line | relative viability (BAM7; 0.5 µM) | relative viability (BAM7; 5 µM) | relative viability (BAM7; 15.81 µM) | relative viability (BAM7; 50 µM) | relative viability ([1]; 0.01 µM) | relative viability ([1]; 0.03162 µM) | relative viability ([1]; 0.1 µM) | relative viability ([1]; 0.3162 µM) | relative viability ([1]; 1 µM) | relative viability ([2]; first compound 0.01 µM) | relative viability ([2]; first compound 0.03162 µM) | relative viability ([2]; first compound 0.1 µM) | relative viability ([2]; first compound 0.3162 µM) | relative viability ([2]; first compound 1 µM) | relative viability (BAM7 + Alpelisib; first compound 0.5 µM) | relative viability (BAM7 + Alpelisib; first compound 5 µM) | relative viability (BAM7 + Alpelisib; first compound 15.81 µM) | relative viability (BAM7 + Alpelisib; first compound 50 µM)
NCI-H1651 | 1.02 | 1 | 1 | 1.05 | 0.941 | 0.935 | 0.95 | 0.924 | 1.01 | 0.653 | 0.605 | 0.597 | 0.574 | 0.572 | 1.01 | 0.861 | 0.967 | 0.883
NCI-H1666 | 1.03 | 1 | 1.09 | 1.05 | 1.02 | 0.956 | 1.01 | 0.949 | 0.954 | 0.865 | 0.857 | 0.782 | 0.885 | 0.907 | 1.04 | 0.892 | 0.9 | 0.984
NCI-H1734 | 1.03 | 1.07 | 1 | 1.1 | 0.95 | 0.978 | 0.893 | 0.932 | 0.86 | 0.389 | 0.419 | 0.385 | 0.391 | 0.431 | 0.74 | 0.804 | 0.638 | 0.676
NCI-H1755 | 1.02 | 1.03 | 0.978 | 1.02 | 0.989 | 1.03 | 0.973 | 0.903 | 1.01 | 0.476 | 0.439 | 0.419 | 0.393 | 0.383 | 0.994 | 0.982 | 0.902 | 0.948
NCI-H1792 | 1.02 | 1.06 | 1.07 | 0.873 | 0.887 | 0.636 | 0.939 | 0.908 | 0.932 | 0.759 | 0.684 | 0.632 | 0.782 | 0.687 | 0.782 | 0.85 | 0.624 | 0.708
NCI-H1793 | 0.963 | 0.838 | 0.899 | 1.03 | 0.936 | 0.879 | 0.751 | 0.859 | 0.942 | 0.864 | 0.917 | – | 0.845 | 0.923 | 0.752 | 0.892 | 0.541 | 0.675
NCI-H1915 | 1.01 | 1.13 | 0.989 | 0.991 | 0.965 | 1.03 | 0.917 | 0.983 | 0.996 | 0.452 | 0.514 | 0.487 | 0.444 | 0.49 | 1.08 | 1.11 | 1.03 | 1.05
NCI-H1944 | 0.947 | 0.949 | 0.857 | 1 | 0.941 | 0.922 | 0.919 | 0.935 | 1.01 | 0.618 | 0.622 | 0.657 | 0.565 | 0.631 | 0.875 | 0.902 | 0.661 | 0.81
NCI-H1975 | 0.823 | 0.898 | 0.775 | 0.903 | 0.932 | 1 | 0.96 | 0.921 | 0.843 | 0.278 | 0.323 | 0.29 | 0.279 | 0.295 | 0.539 | 0.508 | – | 0.548
NCI-H1993 | 0.776 | 0.764 | 0.744 | 0.737 | 0.968 | 0.976 | 0.985 | 0.92 | 0.852 | 0.642 | 0.509 | 0.516 | 0.553 | 0.519 | 0.766 | 0.689 | 0.585 | 0.629
NCI-H2009 | 1.04 | 1.12 | 0.994 | 1.04 | 1 | 1 | 1.02 | 0.95 | 0.932 | 1.08 | 1.09 | 1.06 | 1.14 | 1.06 | 1.21 | 1.15 | 1.1 | 1.15
NCI-H2023 | 0.917 | 0.823 | 0.793 | 1.02 | 0.929 | 0.949 | 0.909 | 0.767 | 0.834 | 0.211 | 0.26 | 0.211 | 0.176 | 0.178 | 0.639 | 0.507 | 0.502 | 0.485
NCI-H2085 | 0.995 | 0.976 | 0.933 | 1.01 | 0.991 | 0.977 | 1 | 0.937 | 0.97 | 0.934 | 0.88 | 0.914 | 0.873 | 0.992 | 0.957 | 1.07 | 0.834 | 0.981
NCI-H2087 | 1.18 | 1.14 | 1.11 | 1.13 | 0.931 | 1.05 | 1.04 | 1.06 | 0.915 | 0.614 | – | 0.646 | 0.615 | 0.613 | 1.17 | 1.15 | 0.917 | 0.985
NCI-H2126 | 0.944 | 0.879 | 0.867 | 0.898 | 0.98 | 0.908 | 0.995 | 0.996 | 1.02 | 0.706 | 0.692 | 0.684 | 0.731 | 0.669 | 0.703 | 0.677 | 0.606 | 0.704
NCI-H2170 | 0.972 | 0.993 | 0.904 | 0.958 | 0.962 | 1.01 | 0.996 | 0.91 | 0.958 | 0.278 | 0.286 | 0.266 | 0.271 | 0.234 | 0.631 | 0.603 | 0.537 | 0.672
NCI-H2228 | 1.06 | 0.968 | 0.914 | 1.2 | 0.938 | 1.1 | 1.04 | 0.848 | 0.809 | 0.336 | 0.302 | 0.328 | 0.339 | 0.318 | 0.863 | 0.879 | 0.763 | 0.607
NCI-H2347 | 1.13 | 1.11 | 1.06 | 1.03 | 1 | 1.03 | 0.956 | 1 | 0.93 | 0.46 | 0.399 | 0.385 | 0.432 | 0.39 | 1.03 | 1.23 | 1.04 | 0.985

Source: the supplement of paper PMC10307832
